# Values of other authors in patent publication US11732223B2, “Solvent compositions for removing petroleum residue from a substrate and methods of use thereof” (priority 2004, dated 2023).
# Tested on: rats
smiles,measurement,setting,value
CCCCOCCOCCO [butyl carbitol],oral LD50,"oral, rats","6,560 mg/kg"
same,toxicity rating on the Hodge and Sterner scale,"rat, in vivo",5
